# Data from patent US11351148B1, “Pharmaceutical composition Mix A to treat health conditions associated with elevated glucose levels” (priority 2021, dated 2022).
# System: skeletal muscle cells
# Assay: In vitro uptake of 2-DG (glucose derivative) in skeletal muscle cells
# Assay type: cell-based, rat
# Procedure: The assay was performed according to manufactures' protocol. Briefly, […] L6 cell line cells were seeded and grown to confluency in white 96 well plates in culture medium containing 10% FBS (serum). After treating with various nutrients with or without insulin cells were starved by incubating in DMEM without glucose and serum. Samples were processed using Glucose Uptake Assay kit according to manufacturer's protocol that uses the glucose analog 2-deoxyglucose (2-DG) to detect and quantify glycose uptake in cells. Luminescence was measured by a Tecan luminometer. 4 repetitions were performed for each treatment when testing individual components and 3 repetitions when testing mixes.
compound,measurement,setting,value
[Cr] [chromium],stimulating effect on glucose uptake by individual compounds compared to controls,"FIG. 6, 0.0001 ug/ml, 24 h at 37° C.",highest stimulating effect
Insulin: human insulin obtained from Sigma,"glucose uptake by the cells, insulin alone","FIG. 8, insulin alone at different concentrations",concentration dependent increase
